# Measured values as given in patent publication US20020065225A1, “Methods of determining altered NDPK functions and the diagnosis of cystic fibrosis” (priority 1999, published 2002).
# Columns and labels:
# NDPK [1] = assay: Peptide-affinity column binding of human nasal membrane proteins, eluate labelled with [32P]ATP; details: wild-type human nasal epithelium membrane proteins, eluate slot blots exposed to [32P]ATP
# Experimental: (§1) We speculated that this part of CFTR would associate with protein(s) from the chloride-sensitive phosphorylation cascade. We constructed peptides corresponding to the CFTR region encompassing position 508 of human CFTR. Membrane proteins from wild-type human nasal epithelium were incubated with either of two peptides corresponding to the wild-type or the ΔF508 mutant form of CFTR (KENIIFGVSYDEYR or KENIIGVSYDEYR, respectively) linked to an affinity matrix (^18). […] In order to generate sufficient material to characterise the bound protein(s), this experiment was repeated using the equivalent ovine wild-type CFTR peptide (KDNIIFGVSYDEYR) and membrane proteins from ovine tracheal epithelia (^18) Proteins eluted from this peptide column were phosphorylated with γ[^32P]ATP and separated by SDS-PAGE. […] In contrast, the failure of membrane-delimited UTP production in CF does provide an additional rationale for the administration of UTP in this disease.
# 18. Human nasal epithetium: Apical membrane proteins from human nasal epithelium were solubilised at 4° C. (10 mM KOH, 0.1% Tween), dialysed against PBS-Tween containing protease inhibitors (3 h) and spun at 150 000 g for 1 h. The supernatant was then re-circulated over affinity supports containing either synthetic peptide KENIIFGVSYDEYR or KENIIGVSYDEYR, corresponding to the F508 region of wild-type or […] mutant CFTR, respectively. The columns were washed with PBS-Tween (0.1%) and eluted with 1M KI. Fractions (40×1 ml) were slot blotted onto nitrocellulose under vacuum. The blots were washed in buffer A (10 mM MOPS pH 7.9, 1 mM MgCl2, 0.05% Triton X-100, 1 mM ATP) for 10 min and subsequently labelled with 5 nM γ[^32P]ATP (specific activity 222 TBq/mmol) in buffer A (1 h at room temperature). The blots were finally washed with PBS-Tween (0.1%) for 30 min (6 buffer changes) and visualised using electronic autoradiography. Sheep tracheal epithelia. The pelleted membranes from sheep tracheal epithelia were solubilised with 0.1% glucopyranoside in 50 mM HEPES pH 7.4 on ice for 1 h and centrifuged at 100 000×g for 30 min. […]
# p37 (Anx I) = details: cited from earlier work
# Anx I [2] = assay: Anx I phosphorylation in murine tracheal epithelium membrane and cytosol with ATP+GDP; assay type: biochemical, mouse
# Text: Cyclic AMP controls both the membrane aggregating and the cation channel properties of Anx I via a proposed cAMP binding site^20. Because cAMP-dependent fluid secretion^22 and vesicle trafficking^2,3,22 are both disordered in CF airway and annexins share significant homology with the region of CFTR (amino acids 500-529) bearing the common disease mutation^7, we speculated that annexins may be involved in CF. […] We observed an absence of a 37 kDa phosphoprotein in plasma membranes from the airway of a CF mouse model, Cftr^tm1cam, which expresses no CFTR (FIG. 6a, quantitation FIG. 6e). We confirmed the identity of murine p37 as Anx I by immunoprecipitating pre-phosphorylated [^32P]p37 from wild type membranes using antibodies against Anx I (FIG. 5c). […] Because Anx I is a membrane-associated protein which shuttles between membrane and cytosol^26, we studied Anx I phosphorylation in cytosol from wild-type and Cftr^tm1Cam. In the absence of GDP and in contrast to the membrane, we found no differences in Anx I phosphorylation between wild-type and Cftr^tm1Cam cytosol (FIG. 6b; quantitation f). We confirmed the identity of cytosolic p37 as Anx I by immunoprecipitating pre-phosphorylated [^32P]p37 as described above (data not shown). […] It is possible that the excess protein results from a compensatory increase in synthesis to overcome a disruption of function. Excess Anx I protein is consistent with the elevated plasma concentrations of the calcium-dependent annexin binding proteins (S100A8 and A9 or CF antigen) in both CF carriers and patients^27. S100 proteins form obligate dimers^6 which bring together the N termini of different Anx I monomers to promote membrane-membrane fusion.
# Swiss mice (wild-type) (6-10 weeks old) and mutant Cftr^tm1Cam mice^12 (4-12 weeks old) were used in this study. […]
# As described previously^15. […] Pre-stained molecular weight markers were used to avoid staining and destaining of gels prior to imaging and quantification. The incorporation of ^32PO4 into individual protein bands was detected using electronic autoradiography (Canberra-Packard Instant Imager).
# Anx I [3] = assay: Nature of the phospho-linkage on ovine [32P]Anx I; assay type: biochemical; details: data not shown
# Experimental: Previously, annexins have been reported, to be phosphorylated on serine and tyrosine residues within the N-terminus by PKC and EGF receptor kinase, respectively^18 but acid hydrolysis (6 N HCl at 105° C., 2 h) of ovine [^32P]Anx I. (labelled for 5 min) removed>95% of the radioactivity from p37 (Anx I) (data not shown). Further analysis confirmed that this phospho-linkage was not on serine, threonine or tyrosine residues because it was acid labile (FIG. 5e, lanes 1 and 3), base stable (FIG. 5e, lane 2) and inhabitable following pre-incubation with diethylpyrocarbamate (modifies histidine residues, data not shown). […] To our knowledge, this is the first report in annexins. […] Histidine phosphorylation may regulate the proposed functions of the core—cation channel permeation^20 and/or membrane fusion^6,8.
# As described previously^19. In order to determine the nature of the phosphate linkage on [^32-P]-annexin I, a membrane fraction was labelled with γ[^32P] GTP or γ[^32P] ATP for 5 min at 37° C. The reaction was terminated with 5x Laemmli sample buffer. Phosphorylated protein (10 μg) was then incubated at 30° C. for 10 min in reaction mixtures containing phosphorylation buffer alone, 0.1 N HCl (pH 1), 0.1 N NaOH (pH 13) or 0.8 M hydroxylamine-0.1 M acetate (pH 5.2). […]
# NDPK [4] = assay: Ovine CFTR peptide affinity column with ovine tracheal epithelial membrane proteins; assay type: binding, sheep; details: for Western blot of eluate with antibodies specific to NDPK: eluate from ovine CFTR peptide column; for phosphorylated species in eluate of peptide column (SDS-PAGE, electronic autoradiography): ovine tracheal membrane proteins, eluate phosphorylated with γ[32P]ATP
# Experimental: as §1
# 18. Human nasal epithetium: Apical membrane proteins from human nasal epithelium were solubilised at 4° C. (10 mM KOH, 0.1% Tween), dialysed against PBS-Tween containing protease inhibitors (3 h) and spun at 150 000 g for 1 h. The supernatant was then re-circulated over affinity supports containing either synthetic peptide KENIIFGVSYDEYR or KENIIGVSYDEYR, corresponding to the F508 region of wild-type or […] mutant CFTR, respectively. The columns were washed with PBS-Tween (0.1%) and eluted with 1M KI. Fractions (40×1 ml) were slot blotted onto nitrocellulose under vacuum. The blots were washed in buffer A (10 mM MOPS pH 7.9, 1 mM MgCl2, 0.05% Triton X-100, 1 mM ATP) for 10 min and subsequently labelled with 5 nM γ[^32P]ATP (specific activity 222 TBq/mmol) in buffer A (1 h at room temperature). The blots were finally washed with PBS-Tween (0.1%) for 30 min (6 buffer changes) and visualised using electronic autoradiography. Sheep tracheal epithelia. The pelleted membranes from sheep tracheal epithelia were solubilised with 0.1% glucopyranoside in 50 mM HEPES pH 7.4 on ice for 1 h and centrifuged at 100 000×g for 30 min. The supernatant was applied to a peptide affinity column (KDNIIFGVSYDEYRC, corresponding to the F508 region of ovine wild-type CFTR, coupled to epoxy activated POROS 20 media using the additional terminal cysteine residue). The column was washed with load buffer containing 1M NaCl, followed by load buffer only (100 column volumes or stable OD280˜0.015). Bound proteins were eluted with 50 mM glycine-NaOH pH 11 containing 0.1% glucopyranoside and immediately neutralised with 1M Tris-HCl pH 8.0.
# annexin I = assay: Inhibition of annexin I phosphorylation in a membrane preparation; assay type: biochemical
# Experimental: Following pre-incubation with N^6-monobutyryladenosine 3′:5′ cyclic monophosphate (N^6-mbcAMP) (0-1 mM) at 4° C. for 30 min, a membrane preparation was phosphorylated with γ[^32P] ATP at 37° C. for 5 min.
# As described previously^15. Phosphorylation and Electronic Autoradiography - Briefly, proteins were phosphorylated with either 37 kBq γ[^32P] ATP or GTP (final nucleotide concentration, 16 nM) in 10 mM MOPS pH 7.9 containing 5 mM DTT. The reaction was terminated by adding 5x Laemmli sample buffer (Laemmli (1970) Nature 227, 680-685) and the proteins separated by SDS-PAGE using 12.5% polyacrylamide gels. Pre-stained molecular weight markers were used to avoid staining and destaining of gels prior to imaging and quantification. The incorporation of ^32PO4 into individual protein bands was detected using electronic autoradiography (Canberra-Packard Instant Imager).
molecule,measurement,setting,value
KENIIFGVSYDEYR [synthetic peptide corresponding to the F508 region of wild-type human CFTR],phosphorylatable protein bound by and eluted from peptide-affinity column,NDPK [1],bound protein(s) that could be phosphorylated
same,phosphorylatable protein bound by and eluted from peptide-affinity column,NDPK [1]; listed as wild-type peptide,a phosphoprotein was observed in fraction 22
Nc1nc2c(ncn2[C@@H]2O[C@H](COP(=O)(O)OP(=O)(O)O)[C@@H](O)[C@H]2O)c(=O)[nH]1 [GDP],enhancement of phosphorylation of the 37 kDa protein,"p37 (Anx I); ATP (50 nM)+GDP (500 nM), 37° C., 5 min (ref 15)",20 fold
same,effect on p37 (Anx I) phosphorylation,p37 (Anx I); previously found (ref 15),enhanced
same,"effect on Anx I phosphorylation, Cftr^tm1Cam cytosol","Anx I [2]; Cftr^tm1Cam cytosol, GDP added to γ[32P]ATP",partial restoration of Anx I phosphorylation
same,"effect on histidine phosphorylation of Anx I, Cftr^tm1Cam membranes","Anx I [2]; Cftr^tm1Cam membranes, ATP+GDP",failed to either restore or enhance
same,"effect on Anx I phosphorylation, wild type membranes","Anx I [2]; wild type murine membranes, γ[32P]ATP+GDP",enhancement was also observed
CCOC(=O)OC(=O)OCC [diethylpyrocarbamate],effect of pre-incubation on Anx I phospho-linkage,Anx I [3],inhabitable
KDNIIFGVSYDEYR [equivalent ovine wild-type CFTR peptide; coupled to the column via an additional terminal cysteine],Western blot of eluate with antibodies specific to NDPK,NDPK [4],"detected a 21 kDa protein, indicating the presence of NDPK"
same,Western blot of eluate with antibodies specific to NDPK,NDPK [4]; listed as ovine CFTR peptide,detected a 21 kDa protein
same,"phosphorylated species in eluate of peptide column (SDS-PAGE, electronic autoradiography)",NDPK [4],a 19/21 kDa doublet was the sole phosphorylated species in the eluate
same,"phosphorylated species in eluate of peptide column (SDS-PAGE, electronic autoradiography)",NDPK [4]; listed as ovine CFTR peptide,showed a 19/21 kDa phosphoprotein
KENIIGVSYDEYR [synthetic peptide corresponding to the F508 region of ΔF508 mutant human CFTR],phosphorylatable protein bound by and eluted from peptide-affinity column,NDPK [1],No phosphorylation was observed
Nc1ncnc2c1ncn2[C@@H]1O[C@@H]2COP(=O)(O)O[C@H]2[C@H]1O [cyclic AMP],inhibition of p37 phosphorylation,annexin I; observed whilst characterising NDPK,inhibiton of p^37 phosphorylation
"CCCC(=O)Nc1ncnc2c1ncn2[C@@H]1O[C@@H]2COP(=O)(O)O[C@H]2[C@H]1O [N^6-mbcAMP, N^6-monobutyryladenosine 3′:5′ cyclic monophosphate]",concentration of maximal inhibition of (histidine) phosphorylation of annexin I,"annexin I; pre-incubation 0-1 mM, 4° C., 30 min, γ[32P]ATP 37° C., 5 min",1 mM
